Experimental data reported in publication PMC7497095, “Active Intermediates in Copper Nitrite Reductase Reactions Probed by a Cryotrapping‐Electron Paramagnetic Resonance Approach” (Angewandte Chemie (International Ed. in English), 2020).

Target: T1, AxNiR (Achromobacter xylosoxidans, UniProt O68601)
T1 construct: gene nir; two-domain copper nitrite reductase, homotrimer
Assay: continuous-wave EPR of T2Cu; cryoreduction-EPR with annealing
Assay type: binding
Details: oxidized enzyme; T2Cu active site; EPR at 20 K

T1 sequence (O68601 entry or part of it): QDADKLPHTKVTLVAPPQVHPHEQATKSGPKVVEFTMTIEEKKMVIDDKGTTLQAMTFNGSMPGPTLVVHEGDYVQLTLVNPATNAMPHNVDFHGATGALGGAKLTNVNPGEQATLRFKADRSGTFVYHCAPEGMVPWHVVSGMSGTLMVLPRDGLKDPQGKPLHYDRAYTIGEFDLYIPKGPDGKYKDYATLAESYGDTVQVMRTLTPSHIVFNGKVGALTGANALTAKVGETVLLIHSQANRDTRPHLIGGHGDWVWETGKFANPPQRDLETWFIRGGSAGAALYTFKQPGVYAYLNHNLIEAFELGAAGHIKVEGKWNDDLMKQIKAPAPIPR

O=NO [nitrite]
continuous-wave EPR of T2Cu; cryoreduction-EPR with annealing: This is indicative of the nitrite being bound to the catalytic T2Cu site
